Columns and labels:
CDK2/Cyclin A = CDK2/Cyclin A (Homo sapiens, UniProt P24941); test: Inhibition of CDK2/Cyclin A Retinoblastoma Kinase Activity; format: biochemical; conditions: read-out: % inhibition of CDK2 (@ 0.05 μM), compound at 0.05 μM
How it was run: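 Baculovirus-expressed CDK2 complexed with proteolyzed cyclin A (10 or 19 nM), Rb fragment substrate, 25 μM [32P/33P]ATP, HEPES pH 7.4, 30 °C for 60 or 75 min under initial-rate conditions. Filter capture and phosphorimager readout; apparent Ki fitted to competitive or tight-binding competitive inhibition.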

HCT-116 cell line = test: Inhibition of cell growth, tetrazolium salt (MTT) assay; format: cell-based; conditions: Homo sapiens, HCT-116, HCT-116 cells; MTT; compound at 0.175 uM
How it was run: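 HCT-116 cells in McCoy's 5A medium received compound 4 h after plating (0.5% v/v DMSO) and were incubated three to five days at 37° C, 5% CO2. MTT (0.2 mg/mL final) then added for 4 h; DMSO-solubilized formazan read at 540 nm against 0.5% DMSO-treated controls.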

| SMILES | inhibition at 0.05 µM (CDK2/Cyclin A) [%] | inhibition at 0.175 µM (HCT-116 cell line) [%] |
| --- | --- | --- |
| CN(C)C1CCN(CCCS(=O)(=O)N2CCC(Nc3nc(N)c(C(=O)c4c(F)cccc4F)s3)CC2)C1 (stereo not shown) [Example V99] | 69 | 0 |
| Nc1nc(NC2CCN(S(=O)(=O)CCCNCc3cccc(F)c3)CC2)sc1C(=O)c1c(F)cccc1F [Example V100] | 91 | 88 |
| Nc1nc(NC2CCN(S(=O)(=O)CCCN3CCSC3)CC2)sc1C(=O)c1c(F)cccc1F [Example V101] | 80 | 22 |
| C=CCNCCCS(=O)(=O)N1CCC(Nc2nc(N)c(C(=O)c3c(F)cccc3F)s2)CC1 [Example V103] | 84 | 37 |
| Nc1nc(NC2CCN(S(=O)(=O)CCCN3CCSCC3)CC2)sc1C(=O)c1c(F)cccc1F [Example V104] | 86 | 42 |
| CCCN(CCO)CCCS(=O)(=O)N1CCC(Nc2nc(N)c(C(=O)c3c(F)cccc3F)s2)CC1 [Example V106] | 82 | 11 |
| CCN(CCCCO)CCCS(=O)(=O)N1CCC(Nc2nc(N)c(C(=O)c3c(F)cccc3F)s2)CC1 [Example V108] | 79 | 2 |
| CCc1ccc(C)cc1NCCCS(=O)(=O)N1CCC(Nc2nc(N)c(C(=O)c3c(F)cccc3F)s2)CC1 [Example V112] | 88 | 57 |
| Nc1nc(NC2CCN(S(=O)(=O)CCCNc3ccon3)CC2)sc1C(=O)c1c(F)cccc1F [Example V116] | 77 | 0 |
| CC(C)(C)c1cc(NCCCS(=O)(=O)N2CCC(Nc3nc(N)c(C(=O)c4c(F)cccc4F)s3)CC2)no1 [Example V117] | 80 | 0 |
| CCCCC(CO)NCCCS(=O)(=O)N1CCC(Nc2nc(N)c(C(=O)c3c(F)cccc3F)s2)CC1 (stereo not shown) [Example V120] | 89 | 6 |
| C[C@H](NCCCS(=O)(=O)N1CCC(Nc2nc(N)c(C(=O)c3c(F)cccc3F)s2)CC1)C(N)=O [Example V121] | 77 | 4 |
| CN(CCCS(=O)(=O)N1CCC(Nc2nc(N)c(C(=O)c3c(F)cccc3F)s2)CC1)CC(O)CO (stereo not shown) [Example V124] | 80 | 9 |
| Nc1nc(NC2CCN(S(=O)(=O)CCCNCCSCCO)CC2)sc1C(=O)c1c(F)cccc1F [Example V125] | 87 | 5 |
| CCSCCNCCCS(=O)(=O)N1CCC(Nc2nc(N)c(C(=O)c3c(F)cccc3F)s2)CC1 [Example V129] | 88 | 49 |
| CCN(CCCS(=O)(=O)N1CCC(Nc2nc(N)c(C(=O)c3c(F)cccc3F)s2)CC1)CCOC [Example V130] | 75 | 36 |
| CCOC(=O)CCNCCCS(=O)(=O)N1CCC(Nc2nc(N)c(C(=O)c3c(F)cccc3F)s2)CC1 [Example V132] | 80 | 20 |
| Nc1nc(NC2CCN(S(=O)(=O)CCCN3CCC(CO)CC3)CC2)sc1C(=O)c1c(F)cccc1F [Example V133] | 71 | 0 |
| Nc1nc(NC2CCN(S(=O)(=O)CCCN3CCC(CCO)CC3)CC2)sc1C(=O)c1c(F)cccc1F [Example V134] | 80 | 8 |
| CN(CCCS(=O)(=O)N1CCC(Nc2nc(N)c(C(=O)c3c(F)cccc3F)s2)CC1)CC(N)=O [Example V138] | 76 | 0 |
| Nc1nc(NC2CCN(S(=O)(=O)CCCNc3cc(O)c4ccccc4n3)CC2)sc1C(=O)c1c(F)cccc1F [Example V140] | 93 | 0 |
| Nc1nc(NC2CCN(S(=O)(=O)CCCNc3ccc4cccc(O)c4n3)CC2)sc1C(=O)c1c(F)cccc1F [Example V142] | 80 | 0 |
| Nc1nc(NC2CCN(S(=O)(=O)CCCN3C[C@@H]4C[C@H]3CO4)CC2)sc1C(=O)c1c(F)cccc1F [Example V143] | 90 | 34 |
| Nc1nc(NC2CCN(S(=O)(=O)CCCNCC3(O)CCCCC3)CC2)sc1C(=O)c1c(F)cccc1F [Example V144] | 87 | 0 |
| CN(C)CCCS(=O)(=O)N1CCC(Nc2nc(N)c(C(=O)c3c(F)cccc3F)s2)CC1 [Example V147] | 78 | 23 |
| Nc1nc(NC2CCN(S(=O)(=O)CCCNCCc3ncn[nH]3)CC2)sc1C(=O)c1c(F)cccc1F [Example V150] | 87 | 18 |

Further lines, with some results ahead:

| inhibition at 0.05 µM (CDK2/Cyclin A) [%] | SMILES | inhibition at 0.175 µM (HCT-116 cell line) [%] |
| --- | --- | --- |
| 81 | CCOCCNCCCS(=O)(=O)N1CCC(Nc2nc(N)c(C(=O)c3c(F)cccc3F)s2)CC1 [Example V98] | 21 |
| 80 | CC1CCN(CCCS(=O)(=O)N2CCC(Nc3nc(N)c(C(=O)c4c(F)cccc4F)s3)CC2)CC1 [Example V102] | 89 |
| 84 | CCCN(CCC#N)CCCS(=O)(=O)N1CCC(Nc2nc(N)c(C(=O)c3c(F)cccc3F)s2)CC1 [Example V105] | 0 |
| 78 | COCCN(C)CCCS(=O)(=O)N1CCC(Nc2nc(N)c(C(=O)c3c(F)cccc3F)s2)CC1 [Example V107] | 36 |
| 85 | Cc1ccnc(NCCCS(=O)(=O)N2CCC(Nc3nc(N)c(C(=O)c4c(F)cccc4F)s3)CC2)c1 [Example V109] | 0 |
| 67 | Nc1nc(NC2CCN(S(=O)(=O)CCCNc3ccc4ccccc4n3)CC2)sc1C(=O)c1c(F)cccc1F [Example V110] | 2 |
| 86 | CCc1ccnc(NCCCS(=O)(=O)N2CCC(Nc3nc(N)c(C(=O)c4c(F)cccc4F)s3)CC2)c1 [Example V111] | 5 |
| 79 | CCc1cccc(NCCCS(=O)(=O)N2CCC(Nc3nc(N)c(C(=O)c4c(F)cccc4F)s3)CC2)n1 [Example V113] | 19 |
| 86 | Nc1nc(NC2CCN(S(=O)(=O)CCCNCCc3cccnc3)CC2)sc1C(=O)c1c(F)cccc1F [Example V114] | 17 |
| 75 | CC(C)N1CCN(CCCS(=O)(=O)N2CCC(Nc3nc(N)c(C(=O)c4c(F)cccc4F)s3)CC2)CC1 [Example V115] | 9 |
| 90 | Nc1nc(NC2CCN(S(=O)(=O)CCCNCC3CCCCC3)CC2)sc1C(=O)c1c(F)cccc1F [Example V118] | 54 |
| 75 | CCCCN(CC#N)CCCS(=O)(=O)N1CCC(Nc2nc(N)c(C(=O)c3c(F)cccc3F)s2)CC1 [Example V119] | 0 |
| 79 | NC(=O)CCNCCCS(=O)(=O)N1CCC(Nc2nc(N)c(C(=O)c3c(F)cccc3F)s2)CC1 [Example V122] | 32 |
| 76 | Cc1ccc(CNCCCS(=O)(=O)N2CCC(Nc3nc(N)c(C(=O)c4c(F)cccc4F)s3)CC2)o1 [Example V123] | 5 |
| 84 | CC(CN(C)C)NCCCS(=O)(=O)N1CCC(Nc2nc(N)c(C(=O)c3c(F)cccc3F)s2)CC1 (stereo not shown) [Example V126] | 6 |
| 87 | CSCCCNCCCS(=O)(=O)N1CCC(Nc2nc(N)c(C(=O)c3c(F)cccc3F)s2)CC1 [Example V127] | 13 |
| 87 | CSCCNCCCS(=O)(=O)N1CCC(Nc2nc(N)c(C(=O)c3c(F)cccc3F)s2)CC1 [Example V128] | 25 |
| 82 | CC(C)OCCNCCCS(=O)(=O)N1CCC(Nc2nc(N)c(C(=O)c3c(F)cccc3F)s2)CC1 [Example V131] | 5 |
| 78 | C=CCN(C)CCCS(=O)(=O)N1CCC(Nc2nc(N)c(C(=O)c3c(F)cccc3F)s2)CC1 [Example V135] | 82 |
| 76 | COC(=O)CN(C)CCCS(=O)(=O)N1CCC(Nc2nc(N)c(C(=O)c3c(F)cccc3F)s2)CC1 [Example V136] | 9 |
| 76 | C=C(C)CN(C)CCCS(=O)(=O)N1CCC(Nc2nc(N)c(C(=O)c3c(F)cccc3F)s2)CC1 [Example V137] | 78 |
| 79 | COC(=O)[C@@H]1CCCN1CCCS(=O)(=O)N1CCC(Nc2nc(N)c(C(=O)c3c(F)cccc3F)s2)CC1 [Example V139] | 0 |
| 82 | COC(=O)CCCNCCCS(=O)(=O)N1CCC(Nc2nc(N)c(C(=O)c3c(F)cccc3F)s2)CC1 [Example V141] | 22 |
| 83 | Nc1nc(NC2CCN(S(=O)(=O)CCCNc3nccc4cccnc34)CC2)sc1C(=O)c1c(F)cccc1F [Example V145] | 0 |
| 82 | Nc1nc(NC2CCN(S(=O)(=O)CCCNCCCc3c[nH]cn3)CC2)sc1C(=O)c1c(F)cccc1F [Example V146] | 13 |
| 83 | CN(CCO)CCCS(=O)(=O)N1CCC(Nc2nc(N)c(C(=O)c3c(F)cccc3F)s2)CC1 [Example V148] | 2 |
| 92 | Nc1cccc(CNCCCS(=O)(=O)N2CCC(Nc3nc(N)c(C(=O)c4c(F)cccc4F)s3)CC2)c1 [Example V149] | 0 |
